According to US20140329858A1, “Cyclic Urea Derivatives As Androgen Receptor Antagonists” (priority 2011, published 2014):

System: Vcap cells
Assay: Dihydrotestosterone (DHT) mediated XTT cell proliferation assay for screening AR antagonists using Vcap cells
Assay type: cell-based
Conditions: Homo sapiens, 240 h, in the presence of 0.2 nM DHT, XTT readout on Day 10, IC50 curves from 8 concentrations
Summary of the method: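 VCaP cells, starved 5 days in phenol red-free DMEM with 8% charcoal-stripped serum, were plated and treated on Day 4 with compound (0.1 nM-30 μM, 8 concentrations) plus 0.2 nM DHT, redosed Day 7. On Day 10 viability was read by XTT at 465 nm; IC50 from sigmoidal dose-response fit.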

Compound	IC50 [nM]
CNC(=O)c1ccc(N2C(=O)N(c3ccc(C#N)c(C(F)(F)F)c3)[C@@H]3CCCC[C@H]32)s1 (racemic) [Example 40, Trans-5-(3-(4-cyano-3-(trifluoromethyl)phenyl)-2-oxooctahydro-1H-benzo[d]imidazol-1-yl)-N-methylthiophene-2-carboxamide (±)]	> 10000
N#Cc1ccc(N2C(=O)N(c3ccc(C(=O)NOCC4CC4)c(F)c3)[C@@H]3CCCC[C@H]32)cc1C(F)(F)F (racemic) [Example 19, Trans-4-(3-(4-cyano-3-(trifluoromethyl)phenyl)-2-oxooctahydro-1H-benzo[d]im-idazol-1-yl)-N-(cyclopropylmethoxy)-2-fluorobenzamide (±)]	233
CC(CO)ONC(=O)c1ccc(N2C(=O)N(c3ccc(C#N)c(C(F)(F)F)c3)[C@@H]3CCCC[C@H]32)cc1F (mixture of isomers) [Example 24, Trans-4-(3-(4-cyano-3-(trifluoromethyl)phenyl)-2-oxooctahydro-1H-benzo[c]im-idazol-1-yl)-2-fluoro-N-((1-hydroxypropan-2-yl)oxy)benzamide (±)]	1520
CNC(=O)c1ccc(N2C(=O)N(c3ccc(C#N)c(C(F)(F)F)c3)[C@H]3CCCC[C@@H]32)cn1 [Example 54, 5-((3aS,7aS)-3-(4-cyano-3-(trifluoromethyl)phenyl)-2-oxooctahydro-1H-benzo[d]imidazol-1-yl)-N-methylpicolinamide]	245
Cc1cc(N2C(=O)N(c3ccc(C#N)c(C(F)(F)F)c3)[C@H]3CCCC[C@@H]32)ccc1C(N)=O [Example 70, 4-((3aS,7aS)-3-(4-cyano-3-(trifluoromethyl)phenyl)-2-oxooctahydro-1H-benzo[d]imidazol-1-yl)-2-methylbenzamide]	733
COCCONC(=O)c1ccc(N2C(=O)N(c3ccc(C#N)c(C(F)(F)F)c3)[C@H]3CCCC[C@@H]32)cc1F [Example 29, 4-((3aS,7aS)-3-(4-Cyano-3-(trifluoromethyl)phenyl)-2-oxooctahydro-1H-benzo[d]imidazol-1-yl)-2-fluoro-N-(2-methoxyethoxy)benzamide]	176
CNC(=O)c1ccc(C2=C[C@H]3[C@@H](CC2)N(c2ccc(C#N)c(C(F)(F)F)c2)C(=O)N3C)cc1F (racemic) [Example 89, Cis-4-(1-(4-cyano-3-(trifluoromethyl)phenyl)-3-methyl-2-oxo-2,3,3a,6,7,7a-hexahydro-1H-benzo[d]imidazol-5-yl)-2-fluoro-N-methylbenzamide (±)]	1000
CC(=O)N(C)c1ccc(N2C(=O)N(c3ccc(C#N)c(C(F)(F)F)c3)[C@@H]3CCCC[C@H]32)cc1F (racemic) [Example 13, Trans-N-(4-(3-(4-cyano-3-(trifluoromethyl)phenyl)-2-oxooctahydro-1H-benzo[d]imidazol-1-yl)-2-fluorophenyl)-N-methylacetamide (±)]	1050
N#Cc1ccc(N2C(=O)N(c3ccc(Cl)cc3)[C@H]3CCCC[C@@H]32)cc1C(F)(F)F [Example 61, 4-((3aS,7aS)-3-(4-chlorophenyl)-2-oxooctahydro-1H-benzo[d]imidazol-1-yl)-2-(trifluoromethyl)benzonitrile]	348
N#Cc1ccc(N2C(=O)N(c3cccnc3F)[C@@H]3CCCC[C@H]32)cc1C(F)(F)F (racemic) [Example 59, Trans-4-(3-(2-fluoropyridin-3-yl)-2-oxooctahydro-1H-benzo[d]imidazol-1-yl)-2-(trifluoromethyl)benzonitrile (±)]	1080
N#Cc1ccc(N2C(=O)N(Cc3ccc(Cl)nc3)[C@@H]3CCCC[C@H]32)cc1C(F)(F)F (racemic) [Example 47, Trans-4-(3-((6-chloropyridin-3-yl)methyl)-2-oxooctahydro-1H-benzo[d]imidazol-1-yl)-2-(trifluoromethyl)benzonitrile (±)]	61.6
CNC(=O)c1ccc(N2C(=O)N(c3ccc(C#N)c(C(F)(F)F)c3)[C@@H]3COCC[C@H]32)cc1F (racemic) [Example 71, Trans-4-{3-[4-Cyano-3-(trifluoromethyl)phenyl]-2-oxo-octahydropyrano[3,4-d]imidazolidin-1-yl}-2-fluoro-N-methylbenzamide (±)]	656
N#Cc1ccc(N2C(=O)N(c3ccc(CO)c(F)c3)[C@H]3CCCC[C@@H]32)cc1C(F)(F)F [Example 46, 4-((3aS,7aS)-3-(3-fluoro-4-(hydroxymethyl)phenyl)-2-oxooctahydro-1H-benzo[d]imidazol-1-yl)-2-(trifluoromethyl)benzonitrile]	660
CNC(=O)c1ccc(N2C(=O)N(c3ccc(C#N)c(C(F)(F)F)c3)[C@@H]3CCOC[C@H]32)cc1F (racemic) [Example 73, Trans-4-(1-(4-Cyano-3-(trifluoromethyl)phenyl)-2-oxohexahydropyrano[3,4-d]imidazol-3(2H)-yl)-2-fluoro-N-methylbenzamide (±)]	2550
Cc1cc(N2C(=O)N(c3ccc(C#N)c(C(F)(F)F)c3)[C@@H]3COCC[C@H]32)ccn1 (racemic) [Example 72, Trans-4-(1-(2-methylpyridin-4-yl)-2-oxohexahydropyrano[3,4-d]imidazol-3(2H)-yl)-2-(trifluoromethyl)benzonitrile (±)]	> 10000

Same assay, conditions: in the presence of 0.2 nM DHT, XTT readout on Day 10, IC50 curves from 8 concentrations

Compound	IC50 [nM]
CNC(=O)c1ccc(N2C(=O)N(c3ccc(C#N)c(C(F)(F)F)c3)[C@@H]3CCCC[C@H]32)cc1F (relative stereo) [Example 1b, Trans-4-{3-[4-cyano-3-(trifluoromethyl)phenyl]-2-oxo-octahydro-1H-1,3-benzodiazol-1-yl}-2-fluoro-N-Methylbenzamide (−)]	90.5
CNC(=O)c1ccc(N2C(=O)N(c3ccc(C#N)c(C(F)(F)F)c3)[C@@H]3CC=CC[C@H]32)cc1F (relative stereo) [Example 83b]	31.9
N#Cc1ccc(N2C(=O)N(c3ccccc3)[C@@H]3CCCC[C@H]32)cc1C(F)(F)F (relative stereo) [Example 5b, Trans-4-(2-oxo-3-phenyloctahydro-1H-benzo[d]imidazol-1-yl)-2-(trifluoromethyl)benzonitrile (−)]	1050
CNC(=O)c1ccc(N2C(=O)N(c3ccc(C#N)c(C(F)(F)F)c3)C3CCC(O)CC32)cc1F (single isomer, unassigned) [Example 82a, Trans-4-(3-(4-cyano-3-(trifluoromethyl)phenyl)-6-hydroxy-2-oxooctahydro-1H-benzo[d]imidazol-1-yl)-2-fluoro-N-methylbenzamide (+)]	> 10000
